What is called IC50 is the point on the concentration scale where inhibition reaches its midpoint.

The structures appear in SMILES notation.

Consider one compound from article PMC10149367, “The ferroptosis inducing compounds RSL3 and ML162 are not direct inhibitors of GPX4 but of TXNRD1” (Redox Biology, 2023).

Series [1] deals with T1, glutathione reductase (GR) (Homo sapiens, UniProt P00390).
T1 construct: made in house
T1 sequence (P00390 44-522): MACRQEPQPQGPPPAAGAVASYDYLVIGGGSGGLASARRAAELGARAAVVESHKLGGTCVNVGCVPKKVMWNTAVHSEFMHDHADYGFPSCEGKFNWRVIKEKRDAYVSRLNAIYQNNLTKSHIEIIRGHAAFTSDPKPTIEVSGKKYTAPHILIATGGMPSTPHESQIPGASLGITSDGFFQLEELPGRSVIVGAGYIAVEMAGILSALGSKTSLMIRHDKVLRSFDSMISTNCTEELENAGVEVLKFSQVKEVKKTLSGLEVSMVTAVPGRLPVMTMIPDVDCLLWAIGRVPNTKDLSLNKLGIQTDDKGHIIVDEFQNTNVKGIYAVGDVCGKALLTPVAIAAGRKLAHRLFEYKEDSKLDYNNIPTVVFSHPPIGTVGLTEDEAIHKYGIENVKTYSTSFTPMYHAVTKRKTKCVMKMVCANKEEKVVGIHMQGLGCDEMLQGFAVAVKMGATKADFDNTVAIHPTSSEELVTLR
Nature of the series: GR counter assay. It counts as biochemical. Conditions: Extended Data Fig. 2A right panel. How it is done: Recombinant human proteins—Recombinant human selenoprotein GPX and TXNRD isoenzymes as well as recombinant human GR were cloned, expressed, and purified as described previously [[26], [27], [28]].
GR counter assay was run by incubating 198 μL of GR and BSA in TES buffer with 2 μL compound for 30 min before dispensing 50 μL GSSG and NADPH in TES for final concentrations of 100 nM GR, 1 mM GSSG, 0.4 mM NADPH, 0.01% BSA. Absorbance at 340 was measured as above.

Series [2] relates to A549 cells. Nature of the series: Cytotoxicity assay, A549 cells. The format is cell-based, human. To be noted: for Cell viability compared to DMSO controls: 5 μM. How it is done:
(§1) Cell culture—H1975 and A549 cells were cultured in RPMI-1640 medium (HyClone) with Earle's salts supplemented and penicillin/streptomycin (100 μg/ml), while HT1080 cells were cultured in MEM medium for Fig. 2 experiments. For all other cellular experiments, A549 cells were cultured in DMEM 4.5 g/L glucose medium (Gibco), and H1975 cells in RPMI-1640 ATCC Modification (Gibco). Cell cultures were maintained at 37 °C in 5% CO2 in a medium containing 10% fetal bovine serum (FBS) (GE Healthcare, A15-102 for Fig. 2 experiments and Sigma, F7524 for all others). Experiments were performed with or without supplementation with 100 nM sodium selenite as described.
(§2) Cytotoxicity assays— Cells were seeded in a 96-well plate at the density of 3 × 10^3 per well and allowed to adhere overnight. After which, cells were treated with various concentrations of compound for the indicated times, whereupon cell viability was determined using Cell Quanti-Blue™ Cell Viability Assay Kits (Nordic Diagnostica, CQBL-10K). Briefly, QUANTI-Blue Reagent (10 μL) was added to each well, incubated at 37 °C in 5% CO2 for 3 h, and then the plates were measured at 540nm/600 nm (Ex/Em) using the Tecan Microplate Reader (Morrisville NC, USA).

For series [3], the system named is H1975 cells. The series is described as follows: Cytotoxicity assay, H1975 cells. It counts as cell-based, human. As for the experimental part: as §1, §2
Series [4] concerns HT1080 cells. The series is described as follows: Cytotoxicity assay, HT1080 cells. Conditions: HT1080, 24 h. It counts as cell-based. How it is done:
as §1, §2

Setting [5] is: 24 h, media not supplemented with selenium.
Setting [6] is: A549, 24 h, no selenium supplementation.
Setting [7] is: A549 in absence of selenium supplementation, 24 h.

Regarding `COC(=O)c1ccc([C@@H]2c3[nH]c4ccccc4c3C[C@@H](C(=O)OC)N2C(=O)CCl)cc1` [RSL3, (1S,3R)RSL3], the “Inhibition of GR” value in series [1] is on record as “did not inhibit GPX1 or GR”. Besides, the IC50 was about 500 nM in series [2] (setting [5]) and 150 nM in series [3] (setting [5]). The “Suppression of cell death by MitoTEMPO” value in series [2] (setting [6]) is recorded as “but not by the mitochondrial antioxidant MitoTEMPO”. Besides, the “Suppression of cell death by addition of ferrostatin-1” value in series [2] (setting [6]) is “at least 20 fold”. The “Cell viability compared to DMSO controls” value in series [2] (A549, non-selenium supplemented, 24 h) was 10%; in series [2] (A549, supplemented with 100 nM sodium selenite, 24 h), “approximately 78%”. Besides, in series [2] (setting [7]), the “Protection by caspase inhibitor z-VAD-fmk” value was “did not protect these cells from RSL3”. The Protection by necrostatin result in series [2] (setting [7]) is reported as “partially protected by nectrostatin”. In addition, the “Block of cell death by antioxidants and iron chelators” value in series [2] (A549 without selenium supplementation, 24 h) is “blocked by ferrostatin, NDGA (another strong antioxidant), or the iron chelators DFO and DPD50”. The “Rescue from cytotoxicity by selenium supplementation” value in series [3] (H1975, 24 h) is given as “partial rescue”; in series [4], “no rescue”.
